In patent publication US11364220B2, “Compounds and methods for inhibiting CPY26 enzymes” (Queen's University at Kingston, priority 2016, dated 2022):

Assays:
CYP26A1 = CYP26A1 (Homo sapiens (Human), UniProt O43174); assay: Cell-based inhibitor assay, [H]-RA metabolism in CYP26A1 stably transfected HeLa cells; conditions: for IC50: CYP26A1 transfected HeLa cells, 3 hours at 37° C., inhibition of all trans-RA metabolism, read-out: IC50 26A1
Experimental: (§1) CYP26A1 or CYP26B1 stably transfected HeLa cells were maintained in Minimum Essential Medium (MEM) containing 10% fetal bovine serum (FBS) and 100 μg/mL hygromycin. Exponentially growing cells were harvested by incubation in trypsin. Cells were then collected and re-plated in 48-well culture plates at 5×10^5 cells in 0.2 mL of culture medium containing 0.05 μCi [H]-RA in the presence or absence of increasing concentrations of a test compound. The test compounds were diluted in dimethyl sulfoxide (DMSO) and then added in duplicate to wells at 0.01, 0.1, 1, 10 and 100 μM final concentration. […] Cells were incubated for 3 hours at 37° C. Retinoids were then extracted using the procedure of Bligh, et al., (1959), Canadian Journal of Biochemistry 37, 911-917, which was modified by using dichloromethane instead of chloroform. Each sample's water soluble radioactivity level was quantified using a β-scintillation counter (using Ecolume scintillation fluid, available from MP Biomedicals of Solon, Ohio, USA).

CYP26B1 = CYP26B1 (Homo sapiens (Human), UniProt Q9NR63); assay: Cell-based inhibitor assay, [H]-RA metabolism in CYP26B1 stably transfected HeLa cells; conditions: for IC50: CYP26B1 transfected HeLa cells, 3 hours at 37° C., inhibition of all trans-RA metabolism, read-out: IC50 26B1
Chain of CYP26B1 (Q9NR63 whole entry, species assumed): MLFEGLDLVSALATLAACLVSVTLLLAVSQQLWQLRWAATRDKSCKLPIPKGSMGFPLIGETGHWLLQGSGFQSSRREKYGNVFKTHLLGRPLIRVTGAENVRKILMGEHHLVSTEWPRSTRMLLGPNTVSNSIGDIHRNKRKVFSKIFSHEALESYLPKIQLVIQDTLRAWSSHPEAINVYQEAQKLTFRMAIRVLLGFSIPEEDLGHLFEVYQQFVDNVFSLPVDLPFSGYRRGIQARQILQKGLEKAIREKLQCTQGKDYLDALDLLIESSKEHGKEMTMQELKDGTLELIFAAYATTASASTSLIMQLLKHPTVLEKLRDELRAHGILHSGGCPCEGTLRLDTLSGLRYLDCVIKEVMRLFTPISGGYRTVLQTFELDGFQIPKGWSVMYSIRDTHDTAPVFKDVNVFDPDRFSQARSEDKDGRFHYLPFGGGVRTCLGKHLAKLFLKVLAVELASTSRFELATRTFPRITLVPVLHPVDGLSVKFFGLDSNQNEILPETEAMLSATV
Experimental: as §1

[1] = tested on: RA sensitive reporter construct pCYP26A1-luc in MCF-7 cells; assay: Retinoid activity assay, RA sensitive pCYP26A1-luc reporter in MCF-7 cells; format: cell-based; conditions: 24 hours, firefly relative to Renilla luciferase
Text: This retinoid activity assay measures the ability of test compounds to induce expression of a transiently transfected RA sensitive reporter construct. In this assay, MCF-7 cells are transfected with a construct comprising an upstream promoter of the CYP26A1 gene containing 2 RA response elements driving expression of firefly luciferase (pCYP26A1-luc). Since CYP26A1 is highly inducible by RA in these cells, this construct serves as a sensitive reporter of retinoid-like transcriptional activity.
MCF-7 cells were maintained in RPMI-1640 medium containing 10% FBS. Exponentially growing cells were harvested by incubation in trypsin. Cells were then collected and plated in 24-well plates at 50,000 cells/well. Once cells reached 80-90% confluence (e.g., the next day), cells were transfected with two plasmids. The first plasmid was CYP26A1-luc construct (375 ng). The second plasmid was a control plasmid comprising the Renilla luciferase gene driven by constitutive thymidine kinase promoter (pRL-tk) (25 ng). Transfection was performed using FuGene 6 transfection reagent (Promega) with a 1:3 ratio of DNA:FuGene. 24 hours after transfection, cells were treated with test compounds diluted in DMSO in triplicate at 0.1, 1 and 10 μM final concentrations. As a positive control for reporter activation, cells were also treated with RA diluted in DMSO at the same concentrations listed above. DMSO treatment alone served as a negative control. After 24 hours of treatment, cells were harvested in passive lysis buffer (Promega) and luciferase activity in cell lysates were read using a luminometer. Data are expressed as the activity of firefly luciferase relative to Renilla luciferase (see Table 3). For CYP26A1 inhibitor compounds, no activation of the reporter was detected, while the related retinoid-like compound induces luciferase expression.

[2] = tested on: CYP26A1 expression in MCF-7 cells; assay: Enhancement of RA activity assay, qPCR of CYP26A1 in MCF-7 cells treated with RA plus compound; format: cell-based; conditions: 1 μM RA + 1 μM compound, 24, 48, 72 hours
Experimental: An RA activity assay was used to measure the ability of compounds that inhibit CYP26A1 to enhance activity of RA, for example, by limiting its catabolism. This assay measured expression of endogenous RA target genes in MCF-7 cells that have been treated with RA and a compound of interest. A compound that inhibits CYP26 activity will have the effect of prolonging the induction of RA target genes in response to RA.
Exponentially growing MCF-7 cells were treated with trypsin, collected and plated into 6-well culture dishes at 300,000 cells per well. […] RA was also added at a final concentration of 1 μM. RNA was harvested using Trizol reagent after 24, 48, and 72 hours of treatment. cDNA was synthesized from 2 μg of total RNA using Superscript III cDNA synthesis kit with random priming (available from Life Technologies, Burlington, ON, Canada). Analysis of expression of the RA inducible CYP26A1 gene was quantified by qPCR normalized against expression of PMM2 with Sybr Select Master Mix (Life Technologies) and gene specific primers in a two-step thermal cycling reaction. Data is provided for a CYP26A1 selective inhibitor, which enhances the induction of CYP26A1.

[3] = tested on: CYP26A1 expression in MCF-7 cells; assay: qPCR of endogenous RA target gene CYP26A1 in MCF-7 cells, compound alone; format: cell-based; conditions: 1 μM
Experimental: Additionally, for some compounds of particular interest, a second assay is performed to measure expression of endogenous RA target genes after treatment with test compounds in MCF-7 cells. Exponentially growing MCF-7 cells were treated with trypsin, collected and plated into 6-well culture dishes at 300,000 cells per well. Once cells reached confluency, they were treated with test compounds diluted in DMSO to a final concentration of 1 μM. As a positive control, cells were also treated with RA at 1 μM final concentration. After 24 hours of treatment, RNA was harvested using TRI reagent (available from Sigma-Aldrich, Oakville, Canada). cDNA was synthesized from 2 μg of total RNA using Superscript III cDNA synthesis kit with random priming (kit available from Life Technologies, Burlington, ON, Canada). Analysis of expression of a RA inducible CYP26A1 gene was quantified by qPCR normalized against expression of PMM2 with Sybr Select Master Mix (Life Technologies) and gene specific primers in a two-step thermal cycling reaction. Data is shown in Table 2 for select compounds of interest. […] See FIGS. 1 and 2 for graphs of retinoid activity.

Chain of CYP26A1 (O43174 whole entry, species assumed): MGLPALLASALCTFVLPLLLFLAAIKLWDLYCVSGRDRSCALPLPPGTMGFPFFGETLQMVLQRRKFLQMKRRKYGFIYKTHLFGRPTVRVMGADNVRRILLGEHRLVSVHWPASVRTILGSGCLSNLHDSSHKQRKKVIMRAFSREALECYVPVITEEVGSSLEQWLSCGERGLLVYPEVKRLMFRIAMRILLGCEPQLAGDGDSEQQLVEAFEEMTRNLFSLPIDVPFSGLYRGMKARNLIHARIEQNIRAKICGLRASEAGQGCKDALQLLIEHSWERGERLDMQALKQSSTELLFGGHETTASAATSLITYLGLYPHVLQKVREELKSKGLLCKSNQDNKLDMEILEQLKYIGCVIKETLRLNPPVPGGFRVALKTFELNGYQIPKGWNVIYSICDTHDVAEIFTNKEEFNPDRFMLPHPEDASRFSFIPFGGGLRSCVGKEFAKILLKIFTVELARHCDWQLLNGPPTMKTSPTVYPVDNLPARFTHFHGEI

Row | SMILES | inhibitory activity towards CYP26A1 (in words) (CYP26A1) | IC50 (CYP26A1) | inhibition of CYP26A1-mediated RA metabolism compared with ketoconazole (in words) (CYP26A1; see IC50 values in Table 2) | inhibition of CYP26B1 enzyme (in words) (CYP26B1) | IC50 (CYP26B1) | Luciferase Activity RLU Avg ([1]; 0.1 μM) | Luciferase Activity RLU Avg ([1]; 1 μM) | Luciferase Activity RLU Avg ([1]; 10 μM) | enhancement of RA signaling, induction of CYP26A1 expression (in words) [2] | enhancement of RA signaling, induction of CYP26A1 expression (in words) ([2]; listed as GGP12) | expression of RA target genes, compound given alone (in words) [3] | retinoid-like activity (in words) ([3]; FIG. 8)
1 | Cc1cc2c(cc1S(=O)(=O)Nc1ccc(C(C)(C)C(=O)O)cc1)C(C)(C)CCC2(C)C [Cmpd 12] | selective inhibitory activity towards CYP26A1 | 0.1 µM | comparable to or better than ketoconazole | None of the above compounds inhibited the CYP26B1 enzyme | > 1000 µM | 0.067 RLU | 0.082 RLU | 0.041 RLU | greatly enhance RA signaling | enhancement of RA signaling |  | 
2 | CC1(C)CCC(C)(C)c2cc(S(=O)(=O)Nc3ccc(C(=O)O)cc3)ccc21 [Cmpd 15] | does not exhibit any inhibitory activity | > 1000 µM |  | does not exhibit any inhibitory activity | > 100 µM | 0.129 RLU | 0.212 RLU | 0.816 RLU |  |  | induces expression of the RA target gene CYP26A1 | does exhibit retinoid-like activity
